# ChEMBL document CHEMBL1201862, “PubChem BioAssay data set” (2004)
# The source made the active and inactive calls.
# What was measured:
# Cytochrome P450 2C9 = Cytochrome P450 2C9 (Homo sapiens, UniProt P11712)
# [1] = Trypanosoma cruzi growth suppression in host cells – NIH3T3 host cells, beta-gal luminescence, confirmation (AID 2044); format: functional, cell-based;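 further: intracellular parasites grown in NIH/3T3 mouse fibroblasts as host cells; luminescent beta-galactosidase reporter signal from transgenic T. cruzi replicating inside host cells; inhibitors lower the luminescence signal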
# [2] = NIH3T3 cell viability loss – ATP luminescence, mouse fibroblasts, counter-screen, dose response (AID 2010); format: functional, cell-based;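 further: cells exposed to compound for about 90 hours before reading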
# [3] = test system: Streptococcus sp. 'group A'; experiment: Streptococcus pyogenes SK(-)GAS viability under kanamycin – luminescence, BacTiterGlo, confirmation, counter-screen for streptokinase expression inhibitor project, dose response (AID 1900); format: functional, organism-based
# Streptococcus = experiment: GAS UMAA2166 growth inhibition – luminescence, BacTiterGlo, counter-screen for streptokinase expression inhibitor project, dose response (AID 1915); format: functional, organism-based;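 further: potency for reduction of bacterial viability or growth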
# [4] = Luminescence Cell-Based Dose Response HTS to Identify Activators of Luciferase Translation or Activity in H4 […] Cells. [Related pubchem assays: 1829 (Project Summary), 1814 (Primary HTS)]; format: functional
# Cytochrome P450 2C19 = Cytochrome P450 2C19 (Homo sapiens, UniProt P33261); experiment: Cytochrome panel assay with activity outcomes. Panel member name: p450-cyp2c19 Compounds with AC50 equal or less than 10 uM are considered active; format: functional
# Cytochrome P450 2C19, sequence (P33261 whole entry): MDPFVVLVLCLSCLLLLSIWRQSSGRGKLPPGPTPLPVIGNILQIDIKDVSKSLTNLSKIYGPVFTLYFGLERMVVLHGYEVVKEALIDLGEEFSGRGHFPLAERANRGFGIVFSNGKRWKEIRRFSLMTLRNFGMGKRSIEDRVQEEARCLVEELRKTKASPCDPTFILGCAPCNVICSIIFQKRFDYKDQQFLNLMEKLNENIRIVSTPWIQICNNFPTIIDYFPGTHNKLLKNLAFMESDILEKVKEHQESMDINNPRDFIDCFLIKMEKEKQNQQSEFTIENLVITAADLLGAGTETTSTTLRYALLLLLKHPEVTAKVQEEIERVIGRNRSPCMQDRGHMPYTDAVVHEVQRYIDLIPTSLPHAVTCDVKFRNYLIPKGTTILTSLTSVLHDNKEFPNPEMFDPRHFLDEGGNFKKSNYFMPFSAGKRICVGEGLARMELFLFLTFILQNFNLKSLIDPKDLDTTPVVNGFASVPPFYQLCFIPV
# Cytochrome P450 2C9, sequence (P11712 whole entry): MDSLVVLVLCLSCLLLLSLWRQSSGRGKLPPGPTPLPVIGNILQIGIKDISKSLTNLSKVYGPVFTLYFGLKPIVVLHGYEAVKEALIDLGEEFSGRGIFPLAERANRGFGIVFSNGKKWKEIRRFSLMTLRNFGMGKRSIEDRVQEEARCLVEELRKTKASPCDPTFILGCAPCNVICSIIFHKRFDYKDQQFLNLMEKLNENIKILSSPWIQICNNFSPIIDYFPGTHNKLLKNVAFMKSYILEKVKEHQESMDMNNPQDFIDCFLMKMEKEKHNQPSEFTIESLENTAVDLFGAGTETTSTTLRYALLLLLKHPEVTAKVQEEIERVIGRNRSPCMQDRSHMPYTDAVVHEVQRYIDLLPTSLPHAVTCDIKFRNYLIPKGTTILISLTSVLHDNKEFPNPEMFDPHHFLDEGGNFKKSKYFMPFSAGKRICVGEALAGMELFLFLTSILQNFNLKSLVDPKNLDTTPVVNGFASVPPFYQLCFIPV
Compound,EC50 [1],EC50 [2],further results
COc1ccccc1CCn1c(=O)c(C)nc2cncnc21,–,–,AC50 (Cytochrome P450 2C9): 31.6 µM (inconclusive)
COc1ccc(C(C(=O)NC2CCCC2)N(C(=O)c2snc(-c3ccc(F)cc3)c2N)c2ccccc2)cc1 (configuration not stated),–,–,AC50 (Cytochrome P450 2C9): 0.891 µM (inconclusive)
Cc1cccc(CN2CCN(CCCc3ccccc3)CC2)c1,0.478 µM (active),> 60 µM (not active),–
COc1cc(-c2cc(-c3ccccc3)nc(SCC(=O)Nc3nccs3)c2C#N)cc(OC)c1OC,1.72 µM (active),> 30 µM (not active),–
COc1cccc(C2c3c(C)nn(-c4ccc([N+](=O)[O-])cc4)c3N=C3C(=O)Nc4ccccc4N32)c1 (configuration not stated),1.87 µM (active),> 60 µM (not active),–
c1ccc(CCn2nnnc2C(c2cccnc2)N2CCN(c3nc4ccccc4s3)CC2)cc1 (configuration not stated),0.244 µM (active),31.2 µM (active),–
COc1ccc(/C=C/c2ccc3cccc(O)c3n2)c(OC)c1OC,–,–,EC50 [3]: 4.85 µM (active); EC50 (Streptococcus): 6.25 µM (active)
C[C@@H](C(=O)NC1CCN(Cc2ccccc2)CC1)N1C(=O)N2CCc3c([nH]c4ccccc34)[C@@]2(C)C1=O,0.299 µM (active),> 60 µM (not active),–
CCOc1cc(/C=C2\N=C(C)OC2=O)cc(Br)c1OCC(=O)OC,–,–,AC50 (Cytochrome P450 2C9): 25.1 µM (inconclusive)
CC(C)(C)NC(=O)NC(=O)CSc1nnc2ccccn12,–,–,AC50 (Cytochrome P450 2C9): 17.8 µM (inconclusive)
Cc1ccc(NC(=O)NNS(=O)(=O)c2ccc(Br)cc2)cc1,–,–,AC50 (Cytochrome P450 2C9): 1 µM (inconclusive)
O=C(Nc1nc(-c2ccccc2)cs1)C1CCCN(S(=O)(=O)c2cccc([N+](=O)[O-])c2)C1 (configuration not stated),0.173 µM (active),> 60 µM (not active),–
O=C(Nc1ccc(N2CCOCC2)c(Cl)c1)c1ccc(Br)o1,–,–,EC50 [4]: 0.113 µM (active)
O=C(Cc1ccccc1)NC(=S)Nc1ccc2oc(-c3ccccc3F)nc2c1,–,–,EC50 [4]: 3.01 µM (active)
CCOC(=O)C1=C(c2ccccc2)Nc2ncnn2C1c1ccc(OC)c(OC)c1OC (configuration not stated),1.84 µM (active),> 60 µM (not active),–
Fc1ccc(COc2cccc(CNCc3ccncc3)c2)cc1,6.99 µM (active),> 60 µM (not active),–
Oc1c(N=NC(S)=Nc2ccccc2F)c2ccccc2n1Cc1ccc(Cl)cc1,1.06 µM (active),5.85 µM (active),–
COc1ccccc1N(CC(O)Cn1c2ccccc2c2ccccc21)S(=O)(=O)c1ccccc1 (configuration not stated),2.21 µM (active),> 60 µM (not active),–
COc1ccccc1-c1nc(NCc2cccs2)c2ccccc2n1,–,–,AC50 (Cytochrome P450 2C19; read-out: AC50): 20 µM (inconclusive)
Cc1cc(C)c2cc(CN(Cc3cccnc3)C(=O)c3ccc(F)cc3)c(Cl)nc2c1,1.08 µM (active),5.07 µM (active),–
CCn1c(SCC(=O)NC2CCCc3ccccc32)nnc1-c1cccs1 (configuration not stated),–,–,AC50 (Cytochrome P450 2C9): 4.47 µM (inconclusive)
COc1ccc(CCn2c(-c3cc([N+](=O)[O-])cc([N+](=O)[O-])c3)nc3nc4ccccc4nc32)cc1,0.157 µM (active),> 60 µM (not active),–
COc1ccc(-c2csc3ncnc(N4CCN(S(=O)(=O)c5cccc(Br)c5)CC4)c23)cc1,1.71 µM (active),> 60 µM (not active),–
Cc1cc(C)c(C#N)c(SCC(=O)C(C)(C)C)n1,1.96 µM (active),> 60 µM (not active),–
COc1ccc([C@H]2/C=C\CN(S(=O)(=O)c3ccc4ccccc4c3)[C@@H](C)C(=O)N2Cc2ccc(F)cc2)cc1,2.03 µM (active),> 60 µM (not active),–
C/C(=N/O)c1ccc2cc(Br)c3ccccc3c2c1,–,–,AC50 (Cytochrome P450 2C19; read-out: AC50): 1 µM (inconclusive)
CCOC(=O)c1cc2c(=O)n3ccccc3nc2n(CCCOC)/c1=N\C(C)=O,–,–,AC50 (Cytochrome P450 2C9): 20 µM (inconclusive)
COc1ccc(-c2nnc3n2N=C(C)CS3)cc1,–,–,AC50 (Cytochrome P450 2C19; read-out: AC50): 25.1 µM (inconclusive); AC50 (Cytochrome P450 2C9): 20 µM (inconclusive)
O=C(O)CNC1=NC2(CCCC2)Cc2ccccc21,–,–,AC50 (Cytochrome P450 2C19): inconclusive
Cc1ccccc1/C=N\NC(=O)c1csnn1,–,–,AC50 (Cytochrome P450 2C19; read-out: AC50): 11.2 µM (inconclusive)
